In patent US7163946B2 (Ligand Pharmaceuticals Incorporated, priority 2002, dated 2007):
One block for each compound: values may come before it.

Tests used:
[1] = target: T1, human mineralocorticoid receptor (hMR) (Homo sapiens, UniProt P08235); assay: hMR cotransfection assay (potency ratio to hPR); assay type: cell-based; details: receptor-selectivity potency ratio, cotransfection assays
T1 sequence (P08235 1-984): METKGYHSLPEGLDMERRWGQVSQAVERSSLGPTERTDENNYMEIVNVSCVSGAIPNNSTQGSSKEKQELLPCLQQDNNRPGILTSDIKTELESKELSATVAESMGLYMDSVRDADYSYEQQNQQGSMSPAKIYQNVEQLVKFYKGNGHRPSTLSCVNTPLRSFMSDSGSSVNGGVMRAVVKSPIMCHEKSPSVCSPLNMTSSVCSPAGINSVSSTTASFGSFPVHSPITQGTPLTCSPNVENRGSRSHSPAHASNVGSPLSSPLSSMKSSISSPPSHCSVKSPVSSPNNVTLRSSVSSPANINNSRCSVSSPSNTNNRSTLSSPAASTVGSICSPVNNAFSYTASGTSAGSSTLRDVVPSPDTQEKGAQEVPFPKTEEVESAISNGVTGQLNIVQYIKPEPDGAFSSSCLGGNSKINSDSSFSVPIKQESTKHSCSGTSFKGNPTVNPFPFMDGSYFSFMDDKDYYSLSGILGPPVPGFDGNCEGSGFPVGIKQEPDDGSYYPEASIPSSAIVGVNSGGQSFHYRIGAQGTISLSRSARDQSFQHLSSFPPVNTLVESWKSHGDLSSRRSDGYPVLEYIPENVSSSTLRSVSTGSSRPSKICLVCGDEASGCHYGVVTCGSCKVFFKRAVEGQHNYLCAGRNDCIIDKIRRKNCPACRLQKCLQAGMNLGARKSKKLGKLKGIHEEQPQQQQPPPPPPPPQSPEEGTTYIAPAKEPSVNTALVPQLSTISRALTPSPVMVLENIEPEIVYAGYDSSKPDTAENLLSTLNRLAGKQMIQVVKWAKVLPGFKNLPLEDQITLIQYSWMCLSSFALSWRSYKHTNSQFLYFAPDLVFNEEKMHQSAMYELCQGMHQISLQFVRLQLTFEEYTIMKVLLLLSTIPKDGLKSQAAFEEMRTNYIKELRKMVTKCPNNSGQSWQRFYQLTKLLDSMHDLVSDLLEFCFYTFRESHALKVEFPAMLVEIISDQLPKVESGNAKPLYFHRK

immature rabbits = assay: McPhail (Clauberg) rabbit assay of progestational activity; assay type: in vivo; details: Oryctolagus cuniculus; estradiol-primed immature rabbits; glandular changes of the uterus; read-out: potency (MAD in mg/kg), minimum active dose
Method: The superiority of the 7,9-difluoro analogue compounds of the present invention was further characterized utilizing the McPhail rabbit model according to the following illustrative Examples. The Clauberg or McPhail assay is a classic assay utilizing rabbits to measure progestational activity. […] In this assay, immature rabbits are treated initially with estradiol, which induces growth in the uterus. This is followed by a progestin, which causes a large change in the glandular content of the uterus. It is this change in the glandular component which is a measure of the progestational activity of a progestin. The measurement of these glandular changes is carried out histologically using stained sections of the uterus. The in vivo comparison between the new 7,9-difluoro compounds and analogues with substitution patterns different from 7,9-difluoro (U.S. Pat. Nos. 5,693,646 and 5,696,127) is tabulated in Tables 7 and 8. The in vivo potency of the progestins is presented as the minimum active dose (MAD).

[2] = system: ovariectomized female rats; assay: Multi-endpoint adult rat model, uterus/breast tissue-selectivity; assay type: in vivo; details: ratio of relative efficacy to MPA in uterus verse in breast tissue at the same highest dose tested; estrone-treated ovariectomized rats, three days

Structure (SMILES): CC1=CC(C)(C)Nc2ccc3c(c21)C(c1cc2ccccc2s1)Oc1c(F)cc(F)cc1-3 (racemic) [Compound 63, (±)-7,9-difluoro-5-(benzo[b]thien-2-yl)-1,2-dihydro-2,2,4-trimethyl-5H-chromeno[3,4-f]quinoline]
hMR EC50 or IC50/hPR EC50 [1]: >1000

Structure (SMILES): CC1=CC(C)(C)Nc2ccc3c(c21)C(c1ccccc1)Oc1c(F)cc(F)cc1-3 (racemic) [Compound 33, (±)-7,9-difluoro-5-phenyl-1,2-dihydro-2,2,4-trimethyl-5H-chromeno[3,4-f]quinoline]
hMR EC50 or IC50/hPR EC50 [1]: >1000

Structure (SMILES): CC#CC1Oc2c(F)cc(F)cc2-c2ccc3c(c21)C(C)=CC(C)(C)N3 (racemic) [Compound 74, (±)-7,9-difluoro-5-(1-propynyl)-1,2-dihydro-2,2,4-trimethyl-5H-chromeno[3,4-f]quinoline]
hMR EC50 or IC50/hPR EC50 [1]: >1000

Structure (SMILES): COc1ccc(F)cc1/C=C1\Oc2c(F)cc(F)cc2-c2ccc3c(c21)C(C)=CC(C)(C)N3 [Compound 26, 7,9-difluoro-5(Z)-(2-methoxy-5-fluorobenzylidene)-1,2-dihydro-2,2,4-trimethyl-5H-chromeno[3,4-f]quinoline]
hMR EC50 or IC50/hPR EC50 [1]: >1000
minimal effective dose (immature rabbits): 2 mg/kg

Structure (SMILES): CC1=CC(C)(C)Nc2ccc3c(c21)C(c1cccc(Cl)c1)Oc1c(F)cc(F)cc1-3 (racemic) [Compound 41, (±)-7,9-difluoro-5-(3-chlorophenyl)-1,2-dihydro-2,2,4-trimethyl-5H-chromeno[3,4-f]quinoline]
hMR EC50 or IC50/hPR EC50 [1]: 905
minimal effective dose (immature rabbits): 0.75 mg/kg

Structure (SMILES): CC1=CC(C)(C)Nc2ccc3c(c21)/C(=C/c1ccncc1C)Oc1c(F)cc(F)cc1-3 [Compound 20, 7,9-difluoro-5(Z)-(3-methyl-4-picolylidene)-1,2-dihydro-2,2,4-trimethyl-5H-chromeno[3,4-f]quinoline]
hMR EC50 or IC50/hPR EC50 [1]: >1000
minimal effective dose (immature rabbits): 0.25 mg/kg

Structure (SMILES): CC1=CC(C)(C)Nc2ccc3c(c21)/C(=C/c1cc(F)ccc1F)Oc1c(F)cc(F)cc1-3 [Compound 17, 7,9-difluoro-5(Z)-(2,5-difluorobenzylidene)-1,2-dihydro-2,2,4-trimethyl-5H-chromeno[3,4-f]quinoline]
hMR EC50 or IC50/hPR EC50 [1]: >1000
uterus/breast tissue-selectivity [2]: 2.7
minimal effective dose (immature rabbits): 0.25 mg/kg

Structure (SMILES): CC1=CC(C)(C)Nc2ccc3c(c21)/C(=C/c1cc(F)ccc1C)Oc1c(F)cc(F)cc1-3 [Compound 19, 7,9-difluoro-5(Z)-(2-methyl-5-fluorobenzylidene)-1,2-dihydro-2,2,4-trimethyl-5H-chromeno[3,4-f]quinoline]
hMR EC50 or IC50/hPR EC50 [1]: >1000
uterus/breast tissue-selectivity [2]: 3.5
minimal effective dose (immature rabbits): 0.1 mg/kg

Structure (SMILES): COc1ccccc1/C=C1\Oc2c(F)cc(F)cc2-c2ccc3c(c21)C(C)=CC(C)(C)N3 [Compound 18, 7,9-difluoro-5(Z)-(2-methoxybenzylidene)-1,2-dihydro-2,2,4-trimethyl-5H-chromeno[3,4-f]quinoline]
hMR EC50 or IC50/hPR EC50 [1]: >1000
minimal effective dose (immature rabbits): 2 mg/kg

Structure (SMILES): CC1=CC(C)(C)Nc2ccc3c(c21)C(c1cccc(C)c1)Oc1c(F)cc(F)cc1-3 (racemic) [Compound 34, (±)-7,9-difluoro-5-(3-methylphenyl)-1,2-dihydro-2,2,4-trimethyl-5H-chromeno[3,4-f]quinoline]
hMR EC50 or IC50/hPR EC50 [1]: >1000
minimal effective dose (immature rabbits): 1 mg/kg

Structure (SMILES): CC1=CC(C)(C)Nc2ccc3c(c21)C(c1ccc(Cl)c(C)c1)Oc1c(F)cc(F)cc1-3 (racemic) [Compound 37, (±)-7,9-difluoro-5-(4-chloro-3-methylphenyl)-1,2-dihydro-2,2,4-trimethyl-5H-chromeno[3,4-f]quinoline]
hMR EC50 or IC50/hPR EC50 [1]: >1000

Second part, led by results:

hMR EC50 or IC50/hPR EC50 [1]: >1000
Structure (SMILES): CC1=CC(C)(C)Nc2ccc3c(c21)/C(=C/Br)Oc1c(F)cc(F)cc1-3 [Compound 29, 7,9-difluoro-5(Z)-bromomethylidene-1,2-dihydro-2,2,4-trimethyl-5H-chromeno[3,4-f]quinoline]

hMR EC50 or IC50/hPR EC50 [1]: >1000
Structure (SMILES): CC1=CC(C)(C)Nc2ccc3c(c21)/C(=C/c1ccncc1)Oc1c(F)cc(F)cc1-3 [Compound 14, 7,9-difluoro-5(Z)-(4-picolylidene)-1,2-dihydro-2,2,4-trimethyl-5H-chromeno[3,4-f]quinoline]

hMR EC50 or IC50/hPR EC50 [1]: >1000
Structure (SMILES): CC1=CC(C)(C)Nc2ccc3c(c21)/C(=C/c1ccccc1)Oc1c(F)cc(F)cc1-3 [Compound 10, 7,9-difluoro-5(Z)-benzylidene-1,2-dihydro-2,2,4-trimethyl-5H-chromeno[3,4-f]quinoline]

hMR EC50 or IC50/hPR EC50 [1]: >1000
Structure (SMILES): CC1=CC(C)(C)Nc2ccc3c(c21)/C(=C/c1ccsc1)Oc1c(F)cc(F)cc1-3 [Compound 30, 7,9-difluoro-5(Z)-(3-thienylmethylidene)-1,2-dihydro-2,2,4-trimethyl-5H-chromeno[3,4-f]quinoline]

hMR EC50 or IC50/hPR EC50 [1]: >1000
Structure (SMILES): CC1=CC(C)(C)Nc2ccc3c(c21)/C(=C/c1cccc(F)c1)Oc1c(F)cc(F)cc1-3 [Compound 15, 7,9-difluoro-5(Z)-(3-fluorobenzylidene)-1,2-dihydro-2,2,4-trimethyl-5H-chromeno[3,4-f]quinoline]
minimal effective dose (immature rabbits): 0.18 mg/kg

hMR EC50 or IC50/hPR EC50 [1]: >1000
Structure (SMILES): CC1=CC(C)(C)Nc2ccc3c(c21)/C(=C/c1cccs1)Oc1c(F)cc(F)cc1-3 [Compound 31, 7,9-difluoro-5(Z)-(2-thienylmethylidene)-1,2-dihydro-2,2,4-trimethyl-5H-chromeno[3,4-f]quinoline]
uterus/breast tissue-selectivity [2]: 3.5
